Experimental data from ChEMBL document CHEMBL3868582, “Discovery, pharmacology, and clinical profile of omadacycline, a novel aminomethylcycline antibiotic” (Bioorg Med Chem, 2016).
Converted amounts (≈) assume the structure as drawn. Each block holds one compound with its values, some of them ahead of it.

Assays:
Streptococcus pneumoniae [1] = assay: Antibacterial activity against Streptococcus pneumoniae PBS1399 infected in mouse assessed as protection against bacterial infection by measuring mouse survival administered intravenously as single dose after 2 hrs of infection measured on day 7; format: functional; settings: PBS1399, iv, read-out: PD50
Streptococcus pneumoniae [2] = assay: Antibacterial activity against Streptococcus pneumoniae PBS1399; format: functional
Clostridioides difficile = assay: Antibacterial activity against Clostridium difficile infected in hamster model assessed as median survival time; format: functional
[3] = Tmax in human at 300 mg, po; format: ADME; settings: in vivo
[4] = Cmax in human at 300 mg, po; format: ADME; design: dose 300 mg, route oral; settings: in vivo
[5] = Half life in human at 300 mg, po; settings: in vivo
[6] = Oral bioavailability in human 300 mg; format: ADME, organism-based; settings: in vivo
[7] = AUC(0 to 24 hrs) in human at 100 mg, iv; format: ADME; design: dose 100 mg, time < 24 hr, route intravenous; settings: in vivo
[8] = Volume of distribution in human at 100 mg, iv or 300 mg, po; format: ADME, organism-based; settings: in vivo
[9] = Cmax in human at 100 mg, iv administered as infusion; format: ADME, organism-based; design: dose 100 mg, route intravenous; settings: in vivo
[10] = AUC(0 to 24 hrs) in human at 300 mg, po; format: ADME; design: time < 24 hr, dose 300 mg, route oral; settings: in vivo
[11] = Systemic clearance in human at 100 mg, iv or 300 mg, po; format: ADME, organism-based; settings: in vivo
[12] = Protein binding in human plasma at 0.1 to 10 ug/ml; format: ADME, cell-free; settings: read-out: PPB (converted)
[13] = Terminal half life in human at 100 mg, iv or 300 mg, po; settings: in vivo
Haemophilus influenzae [14] = assay: Antibacterial activity against Haemophilus influenzae PBS981; format: functional
Haemophilus influenzae [15] = assay: Antibacterial activity against Haemophilus influenzae PBS981 infected in CD-1 mouse assessed as reduction in bacterial load in lungs administered intravenously as single dose after 2 hrs of infection measured after 24 hrs post treatment; format: functional; settings: PBS981, iv
[16] = Drug excretion in human urine at 36.6 uCi, po administered as single dose; format: ADME, organism-based; settings: in vivo
OATP1B1 = OATP1B1 (Homo sapiens, UniProt Q9Y6L6); assay: Inhibition of OATP1B1 (unknown origin) in HEK293 cells at 100 uM; format: cell-based; settings: HEK293 cells expressing OATP1B1
[17] = Drug excretion in human feces at 36.6 uCi, po administered as single dose; format: ADME, organism-based; settings: in vivo
OAT1 (SLC22A6) = OAT1 (SLC22A6) (Homo sapiens, UniProt Q4U2R8); assay: Inhibition of human OAT1 expressed in HEK293 cells at 25 uM; format: cell-based
OATP1B3 = OATP1B3 (Homo sapiens, UniProt Q9NPD5); assay: Inhibition of OATP1B3 (unknown origin) in HEK293 cells at 100 uM; format: cell-based; settings: HEK293 cells expressing OATP1B3
[18] = Fraction absorbed in human urine at 36.6 uCi, po administered as single dose; format: ADME, organism-based; settings: in vivo
[19] = Cmax in human at 100 mg, po q12h; format: ADME, organism-based; design: dose 100 mg, route oral; settings: in vivo
[20] = Cmax in human at 1.5 mg/kg, iv q24h; format: ADME, organism-based; design: dose 1.5 mg/kg, route intravenous; settings: in vivo
[21] = Terminal half life in human at 1.5 mg/kg, iv q24h or 100 mg, po q12h; format: ADME, organism-based; settings: in vivo, read-out: beta t1/2
[22] = Protein binding in human plasma; format: ADME, cell-free; settings: read-out: PPB
[23] = AUC(0 to 24 hrs) in human at 1.5 mg/kg, iv q24h; format: ADME, organism-based; design: dose 1.5 mg/kg, time < 24 hr, route intravenous; settings: in vivo
[24] = AUC(0 to 24 hrs) in human at 100 mg, po q12h; format: ADME, organism-based; design: time < 24 hr, dose 100 mg, route oral; settings: in vivo
[25] = Systemic clearance in human at 1.5 mg/kg, iv q24h or 100 mg, po q12h; format: ADME, organism-based; settings: in vivo
[26] = Oral bioavailability in human at 100 mg administered q12h; format: ADME, organism-based; settings: in vivo
Staphylococcus aureus [27] = assay: Antibacterial activity against Staphylococcus aureus USA400 in mouse thigh wound infection model assessed as reduction in bacterial load administered intravenously as single dose after 2 hrs of infection measured after 24 hrs post treatment; format: functional; settings: USA400, iv
Staphylococcus aureus [28] = assay: Antibacterial activity against Staphylococcus aureus USA400; format: functional
[29] = Cmax in human at 50 mg, iv q12h; format: ADME, organism-based; design: dose 50 mg, route intravenous; settings: in vivo
[30] = Systemic clearance in human at 50 mg, iv q12h; format: ADME, organism-based; settings: in vivo
Staphylococcus aureus [31] = assay: Antibacterial activity against Staphylococcus aureus USA300; format: functional
Staphylococcus aureus [32] = assay: Antibacterial activity against Staphylococcus aureus USA300 in mouse thigh wound infection model assessed as reduction in bacterial load administered intravenously as single dose after 2 hrs of infection measured after 24 hrs post treatment; format: functional; settings: USA300, iv
[33] = AUC(0 to 24 hrs) in human at 50 mg, iv q12h; format: ADME, organism-based; design: dose 50 mg, time < 24 hr, route intravenous; settings: in vivo
[34] = Terminal half life in human at 50 mg, iv q12h; format: ADME, organism-based; settings: in vivo, read-out: beta t1/2

OATP1B1, sequence (Q9Y6L6 whole entry): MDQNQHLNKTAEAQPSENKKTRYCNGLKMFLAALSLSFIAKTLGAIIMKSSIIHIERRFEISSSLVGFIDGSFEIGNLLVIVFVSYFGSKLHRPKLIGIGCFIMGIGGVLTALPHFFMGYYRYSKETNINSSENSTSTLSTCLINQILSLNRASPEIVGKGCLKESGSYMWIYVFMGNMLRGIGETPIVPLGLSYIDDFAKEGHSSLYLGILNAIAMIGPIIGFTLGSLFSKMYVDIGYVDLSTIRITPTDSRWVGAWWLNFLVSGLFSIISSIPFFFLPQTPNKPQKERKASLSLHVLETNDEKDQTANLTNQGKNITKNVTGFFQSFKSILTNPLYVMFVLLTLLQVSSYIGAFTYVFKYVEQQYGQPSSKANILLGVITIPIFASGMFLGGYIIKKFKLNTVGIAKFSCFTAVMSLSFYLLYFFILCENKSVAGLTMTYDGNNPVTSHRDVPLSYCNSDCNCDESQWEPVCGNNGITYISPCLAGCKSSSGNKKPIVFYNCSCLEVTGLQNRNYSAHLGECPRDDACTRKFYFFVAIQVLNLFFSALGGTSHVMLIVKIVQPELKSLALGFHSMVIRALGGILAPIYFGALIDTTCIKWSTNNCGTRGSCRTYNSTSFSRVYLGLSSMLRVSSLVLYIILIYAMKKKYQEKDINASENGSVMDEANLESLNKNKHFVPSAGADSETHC
OATP1B3, sequence (Q9NPD5 whole entry): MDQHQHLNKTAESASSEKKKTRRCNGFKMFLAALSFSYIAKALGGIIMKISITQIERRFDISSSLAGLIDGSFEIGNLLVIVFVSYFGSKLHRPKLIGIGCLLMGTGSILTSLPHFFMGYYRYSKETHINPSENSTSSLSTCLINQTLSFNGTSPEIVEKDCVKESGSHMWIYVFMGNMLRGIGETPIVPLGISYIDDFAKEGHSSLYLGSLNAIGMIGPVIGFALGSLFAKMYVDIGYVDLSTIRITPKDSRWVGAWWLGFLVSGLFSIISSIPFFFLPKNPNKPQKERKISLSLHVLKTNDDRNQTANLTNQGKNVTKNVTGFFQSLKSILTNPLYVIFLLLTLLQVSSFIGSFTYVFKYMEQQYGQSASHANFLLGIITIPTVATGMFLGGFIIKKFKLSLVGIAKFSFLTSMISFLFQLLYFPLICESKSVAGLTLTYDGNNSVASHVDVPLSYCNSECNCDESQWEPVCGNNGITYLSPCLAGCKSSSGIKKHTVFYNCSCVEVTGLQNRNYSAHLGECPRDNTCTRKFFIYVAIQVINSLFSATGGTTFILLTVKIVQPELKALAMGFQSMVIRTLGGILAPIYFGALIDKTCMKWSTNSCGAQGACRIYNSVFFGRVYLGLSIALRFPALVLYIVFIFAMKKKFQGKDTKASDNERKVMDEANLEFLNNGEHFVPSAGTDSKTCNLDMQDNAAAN
OAT1 (SLC22A6), sequence (Q4U2R8 whole entry): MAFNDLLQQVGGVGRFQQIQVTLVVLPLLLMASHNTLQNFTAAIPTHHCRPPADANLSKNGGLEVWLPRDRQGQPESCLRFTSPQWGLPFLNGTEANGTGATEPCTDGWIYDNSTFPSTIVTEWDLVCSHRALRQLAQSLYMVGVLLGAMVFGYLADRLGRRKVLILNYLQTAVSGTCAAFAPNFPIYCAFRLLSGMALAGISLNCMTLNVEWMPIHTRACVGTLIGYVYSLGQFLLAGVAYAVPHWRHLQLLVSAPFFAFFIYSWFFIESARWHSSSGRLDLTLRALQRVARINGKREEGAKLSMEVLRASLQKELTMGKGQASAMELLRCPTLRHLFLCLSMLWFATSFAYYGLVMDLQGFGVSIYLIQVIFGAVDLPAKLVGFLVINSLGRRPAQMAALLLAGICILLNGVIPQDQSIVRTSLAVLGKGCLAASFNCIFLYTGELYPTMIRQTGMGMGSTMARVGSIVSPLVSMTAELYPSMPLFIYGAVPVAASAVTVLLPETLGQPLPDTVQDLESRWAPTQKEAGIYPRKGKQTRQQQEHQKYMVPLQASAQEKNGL

SMILES: CN(C)c1ccc(O)c2c1C[C@H]1C[C@H]3[C@H](N(C)C)C(O)=C(C(N)=O)C(=O)[C@@]3(O)C(O)=C1C2=O [MINOCYCLINE]
ED50 (Streptococcus pneumoniae [1]): 3.44 mg/kg
MIC (Streptococcus pneumoniae [2]): 0.25 µg/mL (≈ 0.546 µM)

SMILES: CCC[C@@H]1C[C@@H](C(=O)N[C@@H]([C@H]2O[C@H](SC)[C@H](O)[C@@H](O)[C@H]2O)[C@H](C)Cl)N(C)C1 [CLINDAMYCIN]
MST (Clostridioides difficile): 4 days

SMILES: CN(C)c1cc(CNCC(C)(C)C)c(O)c2c1C[C@H]1C[C@H]3[C@H](N(C)C)C(O)=C(C(N)=O)C(=O)[C@@]3(O)C(O)=C1C2=O.Cc1ccc(S(=O)(=O)O)cc1 [OMADACYCLINE TOSYLATE]
Tmax [3]: 3 h
Cmax [4]: 540 ng/mL
half-life [5]: 17 h
bioavailability [6]: 34.5%

SMILES: CN(C)c1cc(CNCC(C)(C)C)c(O)c2c1C[C@H]1C[C@H]3[C@H](N(C)C)C(O)=C(C(N)=O)C(=O)[C@@]3(O)C(O)=C1C2=O.Cl
AUC [7]: 8800 ng·h/mL
Cmax [4]: 700 ng/mL
Vd [8]: 333 to 640 L
Cmax [9]: 1800 ng/mL
AUC(0-t) at 24 h [10]: 5900 ng·h/mL
CL [11]: 17.1 L/h
bioavailability [6]: 34.5%
fraction unbound [12]: 0.79
half-life [13]: 17 h

MIC (Haemophilus influenzae [14]): < 0.06 µg/mL
SMILES: O=C(O)c1cn(C2CC2)c2cc(N3CCNCC3)c(F)cc2c1=O [CIPROFLOXACIN]
ED50 (Haemophilus influenzae [15]): 1.16 mg/kg

Drug excretion [16]: 14.4 %ID
SMILES: CN(C)c1cc([14CH2]NCC(C)(C)C)c(O)c2c1C[C@H]1C[C@H]3[C@@H](N(C)C)C(O)=C(C(N)=O)C(=O)[C@@]3(O)C(O)=C1C2=O

SMILES: CO/N=C(\C(=O)N[C@@H]1C(=O)N2C(C(=O)O)=C(CSc3nc(=O)c(O)nn3C)CS[C@H]12)c1csc(N)n1 [CEFTRIAXONE]
MIC (Haemophilus influenzae [14]): < 0.06 µg/mL
ED50 (Haemophilus influenzae [15]): 0.1 mg/kg
ED50 (Streptococcus pneumoniae [1]): 0.37 mg/kg
MIC (Streptococcus pneumoniae [2]): 0.015 µg/mL (≈ 0.027 µM)

SMILES: CN[C@H](CC(C)C)C(=O)N[C@H]1C(=O)N[C@@H](CC(N)=O)C(=O)N[C@H]2C(=O)N[C@H]3C(=O)N[C@H](C(=O)N[C@H](C(=O)O)c4cc(O)cc(O)c4-c4cc3ccc4O)[C@H](O)c3ccc(c(Cl)c3)Oc3cc2cc(c3O[C@@H]2O[C@H](CO)[C@@H](O)[C@H](O)[C@H]2O[C@H]2C[C@](C)(N)[C@H](O)[C@H](C)O2)Oc2ccc(cc2Cl)[C@H]1O [VANCOMYCIN]
MST (Clostridioides difficile): 2 days
ED50 (Streptococcus pneumoniae [1]): 3.3 mg/kg
MIC (Streptococcus pneumoniae [2]): 0.5 µg/mL (≈ 0.345 µM)

SMILES: CCCCCCCCCC(=O)N[C@@H](Cc1c[nH]c2ccccc12)C(=O)N[C@@H](CC(N)=O)C(=O)N[C@@H](CC(=O)O)C(=O)N[C@@H]1C(=O)NCC(=O)N[C@@H](CCCN)C(=O)N[C@@H](CC(=O)O)C(=O)N[C@H](C)C(=O)N[C@@H](CC(=O)O)C(=O)NCC(=O)N[C@H](CO)C(=O)N[C@@H]([C@H](C)CC(=O)O)C(=O)N[C@@H](CC(=O)c2ccccc2N)C(=O)O[C@@H]1C [DAPTOMYCIN]
ED50 (Streptococcus pneumoniae [1]): > 100 mg/kg
MIC (Streptococcus pneumoniae [2]): 0.25 µg/mL (≈ 0.154 µM)

SMILES: C[C@H]1COc2c(N3CCN(C)CC3)c(F)cc3c(=O)c(C(=O)O)cn1c23.C[C@H]1COc2c(N3CCN(C)CC3)c(F)cc3c(=O)c(C(=O)O)cn1c23.O [LEVOFLOXACIN]
MIC (Haemophilus influenzae [14]): < 0.06 µg/mL
ED50 (Haemophilus influenzae [15]): 2.4 mg/kg
ED50 (Streptococcus pneumoniae [1]): > 18 mg/kg

SMILES: CC(=O)NC[C@H]1CN(c2ccc(N3CCOCC3)c(F)c2)C(=O)O1 [LINEZOLID]
ED50 (Streptococcus pneumoniae [1]): 38.8 mg/kg

Drug excretion [16]: 14.4 %ID
inhibition at 100 µM (OATP1B1): 10.1%
Drug excretion [17]: 81.1 %ID
inhibition at 25 µM (OAT1 (SLC22A6)): 32.1%
inhibition at 100 µM (OATP1B3): 10.1%
Fabs [18]: 40%
SMILES: CN(C)c1cc([14CH2]NCC(C)(C)C)c(O)c2c1C[C@H]1C[C@H]3[C@H](N(C)C)C(O)=C(C(N)=O)C(=O)[C@@]3(O)C(O)=C1C2=O

Cmax [19]: 160 ng/mL
Cmax [20]: 1900 ng/mL
half-life [21]: 10 to 14 h
fraction unbound [22]: 0.13 to 0.21
AUC at 24 h [23]: 7900 ng·h/mL
AUC at 24 h [24]: 3100 ng·h/mL
clearance [25]: 297 mL/min
bioavailability [26]: 28%
SMILES: CN(C)[C@@H]1C(O)=C(C(N)=O)C(=O)[C@@]2(O)C(O)=C3C(=O)c4c(O)c(NC(=O)CN5CCCC5)cc(F)c4C[C@H]3C[C@@H]12 [ERAVACYCLINE]

SMILES: C[C@H]1c2cccc(O)c2C(=O)C2=C(O)[C@]3(O)C(=O)C(C(N)=O)=C(O)[C@@H](N(C)C)[C@@H]3[C@@H](O)[C@@H]21.O [DOXYCYCLINE]
ED50 (Streptococcus pneumoniae [1]): 10.3 mg/kg
MIC (Streptococcus pneumoniae [2]): 0.125 µg/mL

SMILES: CC[C@H]1OC(=O)[C@H](C)[C@@H](O[C@H]2C[C@@](C)(OC)[C@@H](O)[C@H](C)O2)[C@H](C)[C@@H](O[C@@H]2O[C@H](C)C[C@H](N(C)C)[C@H]2O)[C@](C)(O)C[C@@H](C)CN(C)[C@H](C)[C@@H](O)[C@]1(C)O [AZITHROMYCIN]
ED50 (Streptococcus pneumoniae [1]): 3.31 mg/kg
MIC (Streptococcus pneumoniae [2]): 0.03 µg/mL (≈ 0.0401 µM)

SMILES: CN(C)c1cc(NC(=O)CNC(C)(C)C)c(O)c2c1C[C@H]1C[C@H]3[C@H](N(C)C)C(O)=C(C(N)=O)C(=O)[C@@]3(O)C(O)=C1C2=O [TIGECYCLINE]
MIC (Haemophilus influenzae [14]): 0.25 µg/mL (≈ 0.427 µM)
ED50 (Staphylococcus aureus [27]): 0.46 mg/kg
fraction unbound [22]: 0.13 to 0.31
MIC (Staphylococcus aureus [28]): 0.06 µg/mL (≈ 0.102 µM)
ED50 (Haemophilus influenzae [15]): 2.31 mg/kg
Cmax [29]: 870 ng/mL
CL [30]: 23.8 L/h
MIC (Staphylococcus aureus [31]): 0.125 µg/mL (≈ 0.213 µM)
ED50 (Staphylococcus aureus [32]): 0.45 mg/kg
AUC [33]: 4700 ng·h/mL
half-life [34]: 37 to 66 h
ED50 (Streptococcus pneumoniae [1]): 0.91 mg/kg
MIC (Streptococcus pneumoniae [2]): 0.125 µg/mL (≈ 0.213 µM)
